Measurements reported in the supplement of paper PMC6045584.
± gives the standard deviation of the averaged measurements.

How the values were obtained:
CELECOXIB [1] = compound: T1, Cc1ccc(-c2cc(C(F)(F)F)nn2-c2ccc(S(N)(=O)=O)cc2)cc1 [CELECOXIB]; experiment: surviving fraction relative to DMSO-only wells; higher = less growth inhibition; settings: exposure time: 5 days
Summary of the method: (§1)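 Viability was determined by CellTiter-Glo luminescence, expressed as surviving fraction normalised to the median of DMSO-only wells. The cells were log-phase tumour cell lines seeded at 250–500 per well in 384-well plates and, after 24 hours, exposed continuously for five days to inhibitors at 0.5, 1, 5, 10, 50, 100, 500 and 1000 nM. Three screens per line were run, keeping only lines with replicate Pearson r >0.7 and median Z' >0.3.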

CAMPTOTHECIN [2] = compound: T2, CC[C@@]1(O)C(=O)OCc2c1cc1n(c2=O)Cc2cc3ccccc3nc2-1 [CAMPTOTHECIN]; experiment: as above; settings: exposure time: 5 days
Summary of the method: as §1

[3] = compound: CC(=O)NCC(=O)N1[C@@H]2CC[C@H]1c1ccc(Nc3ncc(C(F)(F)F)c(NC4CCC4)n3)cc12; experiment: as above; settings: exposure time: 5 days
Summary of the method: as §1

CARBOPLATIN [4] = compound: T3, O=C(O)C1(C(=O)O)CCC1.[NH2-].[NH2-].[Pt+2] [CARBOPLATIN]; experiment: as above; settings: exposure time: 5 days
Summary of the method: as §1

OSI-906 [5] = compound: T4, C[C@]1(O)C[C@@H](c2nc(-c3ccc4ccc(-c5ccccc5)nc4c3)c3c(N)nccn32)C1 [OSI-906]; experiment: as above; settings: exposure time: 5 days
Summary of the method: as §1

YM155 [6] = compound: T5, COCC[n+]1c2c(n(Cc3cnccn3)c1C)C(=O)c1ccccc1C2=O [YM155]; experiment: as above; settings: exposure time: 5 days
Summary of the method: as §1

PACLITAXEL [7] = compound: T6, CC(=O)O[C@H]1C(=O)[C@@]2(C)[C@H]([C@H](OC(=O)c3ccccc3)[C@]3(O)C[C@H](OC(=O)[C@H](O)[C@@H](NC(=O)c4ccccc4)c4ccccc4)C(C)=C1C3(C)C)[C@]1(OC(C)=O)CO[C@@H]1C[C@@H]2O [PACLITAXEL]; experiment: as above; settings: exposure time: 5 days
Summary of the method: as §1

GEFITINIB [8] = compound: T7, COc1cc2ncnc(Nc3ccc(F)c(Cl)c3)c2cc1OCCCN1CCOCC1 [GEFITINIB]; experiment: as above; settings: exposure time: 5 days
Summary of the method: as §1

[9] = compound: CC(=O)c1c(C)c2cnc(Nc3ccc(N4CCNCC4)cn3)nc2n(C2CCCC2)c1=O; experiment: as above; settings: exposure time: 5 days
Summary of the method: as §1

CELECOXIB [10] = compound: T1, CELECOXIB; experiment: area under dose-response curve of surviving fraction (unscaled, Aref=0) (surviving fraction x log10(nM)); higher = more resistant; settings: exposure time: 5 days; dose range 0.5-1000 nM
Summary of the method: (§2)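 Tumour cell lines in 384-well plates were exposed for five days to eight inhibitor concentrations from 0.5 to 1000 nM. Viability was read by CellTiter-Glo luminescence, normalised to DMSO-only wells, in three screens per line. Dose-response survival curves were fitted to surviving fractions by 3-parameter logistic regression in the drc R package. Area under the curve is the unscaled activity area (Aref = 0) over log10 dose.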

CAMPTOTHECIN [11] = compound: T2, CAMPTOTHECIN; experiment: as above; settings: exposure time: 5 days; dose range 0.5-1000 nM
Summary of the method: as §2

[12] = compound: CC(=O)NCC(=O)N1[C@@H]2CC[C@H]1c1ccc(Nc3ncc(C(F)(F)F)c(NC4CCC4)n3)cc12; experiment: as above; settings: exposure time: 5 days; dose range 0.5-1000 nM
Summary of the method: as §2

CARBOPLATIN [13] = compound: T3, CARBOPLATIN; experiment: as above; settings: exposure time: 5 days; dose range 0.5-1000 nM
Summary of the method: as §2

OSI-906 [14] = compound: T4, OSI-906; experiment: as above; settings: exposure time: 5 days; dose range 0.5-1000 nM
Summary of the method: as §2

YM155 [15] = compound: T5, YM155; experiment: as above; settings: exposure time: 5 days; dose range 0.5-1000 nM
Summary of the method: as §2

PACLITAXEL [16] = compound: T6, PACLITAXEL; experiment: as above; settings: exposure time: 5 days; dose range 0.5-1000 nM
Summary of the method: as §2

GEFITINIB [17] = compound: T7, GEFITINIB; experiment: as above; settings: exposure time: 5 days; dose range 0.5-1000 nM
Summary of the method: as §2

[18] = compound: CC(=O)c1c(C)c2cnc(Nc3ccc(N4CCNCC4)cn3)nc2n(C2CCCC2)c1=O; experiment: as above; settings: exposure time: 5 days; dose range 0.5-1000 nM
Summary of the method: as §2

Work on HOSMNG BONE yielded a surviving fraction (CELECOXIB [1]; 0.5 nM) of 0.941 ± 0.06, a surviving fraction (CELECOXIB [1]; 1 nM) of 0.968 ± 0.093 and a surviving fraction (CELECOXIB [1]; 5 nM) of 0.923 ± 0.047. The surviving fraction (CELECOXIB [1]; 10 nM) was 0.879 ± 0.11, the surviving fraction (CELECOXIB [1]; 50 nM) was 1.01 ± 0.059 and the surviving fraction (CELECOXIB [1]; 100 nM) was 1.08 ± 0.098. For the same test system, the surviving fraction (CELECOXIB [1]; 500 nM) was 1.05 ± 0.13, the surviving fraction (CELECOXIB [1]; 1000 nM) was 1.02 ± 0.072 and the surviving fraction (CAMPTOTHECIN [2]; 0.5 nM) was 0.889 ± 0.11. For the same test system, the surviving fraction (CAMPTOTHECIN [2]; 1 nM) was 0.973 ± 0.035, the surviving fraction (CAMPTOTHECIN [2]; 5 nM) was 0.863 ± 0.1 and the surviving fraction (CAMPTOTHECIN [2]; 10 nM) was 0.875 ± 0.042. It also gave a surviving fraction (CAMPTOTHECIN [2]; 50 nM) of 0.322 ± 0.035, a surviving fraction (CAMPTOTHECIN [2]; 100 nM) of 0.214 ± 0.0082 and a surviving fraction (CAMPTOTHECIN [2]; 500 nM) of 0.0427 ± 0.0038. For the same test system, the surviving fraction (CAMPTOTHECIN [2]; 1000 nM) was 0.0287 ± 0.0015, the surviving fraction ([3]; 0.5 nM) was 0.997 ± 0.028 and the surviving fraction ([3]; 1 nM) was 1.01 ± 0.06. It also gave a surviving fraction ([3]; 5 nM) of 0.962 ± 0.033, a surviving fraction ([3]; 10 nM) of 0.989 ± 0.016 and a surviving fraction ([3]; 50 nM) of 0.886 ± 0.088. The surviving fraction ([3]; 100 nM) was 0.874 ± 0.041, the surviving fraction ([3]; 500 nM) was 0.449 ± 0.019 and the surviving fraction ([3]; 1000 nM) was 0.392 ± 0.0087. It also gave a surviving fraction (CARBOPLATIN [4]; 0.5 nM) of 1.06 ± 0.025, a surviving fraction (CARBOPLATIN [4]; 1 nM) of 1.02 ± 0.059 and a surviving fraction (CARBOPLATIN [4]; 5 nM) of 1.03 ± 0.075. The surviving fraction (CARBOPLATIN [4]; 10 nM) was 1.05 ± 0.036, the surviving fraction (CARBOPLATIN [4]; 50 nM) was 1.22 ± 0.069 and the surviving fraction (CARBOPLATIN [4]; 100 nM) was 1.23 ± 0.015. It also gave a surviving fraction (CARBOPLATIN [4]; 500 nM) of 1.091 ± 0.0096, a surviving fraction (CARBOPLATIN [4]; 1000 nM) of 1.19 ± 0.013 and a surviving fraction (OSI-906 [5]; 0.5 nM) of 0.94 ± 0.099. The surviving fraction (OSI-906 [5]; 1 nM) was 0.941 ± 0.076, the surviving fraction (OSI-906 [5]; 5 nM) was 0.948 ± 0.06 and the surviving fraction (OSI-906 [5]; 10 nM) was 0.98 ± 0.062. It also gave a surviving fraction (OSI-906 [5]; 50 nM) of 0.854 ± 0.086, a surviving fraction (OSI-906 [5]; 100 nM) of 0.993 ± 0.1 and a surviving fraction (OSI-906 [5]; 500 nM) of 0.957 ± 0.056. It also gave a surviving fraction (OSI-906 [5]; 1000 nM) of 1 ± 0.032, a surviving fraction (YM155 [6]; 0.5 nM) of 0.934 ± 0.09 and a surviving fraction (YM155 [6]; 1 nM) of 0.929 ± 0.1. It also gave a surviving fraction (YM155 [6]; 5 nM) of 0.889 ± 0.096, a surviving fraction (YM155 [6]; 10 nM) of 0.87 ± 0.11 and a surviving fraction (YM155 [6]; 50 nM) of 0.198 ± 0.0064. It also gave a surviving fraction (YM155 [6]; 100 nM) of 0.132 ± 0.017, a surviving fraction (YM155 [6]; 500 nM) of 0.0837 ± 0.04 and a surviving fraction (YM155 [6]; 1000 nM) of 0.061 ± 0.0036. The surviving fraction (PACLITAXEL [7]; 0.5 nM) was 1.04 ± 0.049, the surviving fraction (PACLITAXEL [7]; 1 nM) was 1.05 ± 0.11 and the surviving fraction (PACLITAXEL [7]; 5 nM) was 0.921 ± 0.088. The surviving fraction (PACLITAXEL [7]; 10 nM) was 0.924 ± 0.043, the surviving fraction (PACLITAXEL [7]; 50 nM) was 0.29 ± 0.031 and the surviving fraction (PACLITAXEL [7]; 100 nM) was 0.12 ± 0.0079. The surviving fraction (PACLITAXEL [7]; 500 nM) was 0.0573 ± 0.0021, the surviving fraction (PACLITAXEL [7]; 1000 nM) was 0.063 ± 0.0044 and the surviving fraction (GEFITINIB [8]; 0.5 nM) was 1.01 ± 0.035. The surviving fraction (GEFITINIB [8]; 1 nM) was 0.993 ± 0.0089, the surviving fraction (GEFITINIB [8]; 5 nM) was 0.971 ± 0.092 and the surviving fraction (GEFITINIB [8]; 10 nM) was 1.03 ± 0.073. It also gave a surviving fraction (GEFITINIB [8]; 50 nM) of 1.05 ± 0.085, a surviving fraction (GEFITINIB [8]; 100 nM) of 1.14 ± 0.026 and a surviving fraction (GEFITINIB [8]; 500 nM) of 1.09 ± 0.091. It also gave a surviving fraction (GEFITINIB [8]; 1000 nM) of 1.07 ± 0.021, a surviving fraction ([9]; 0.5 nM) of 1.03 ± 0.021 and a surviving fraction ([9]; 1 nM) of 0.978 ± 0.16. It also gave a surviving fraction ([9]; 5 nM) of 1.02 ± 0.042, a surviving fraction ([9]; 10 nM) of 1 ± 0.048 and a surviving fraction ([9]; 50 nM) of 1.07 ± 0.072. It also gave a surviving fraction ([9]; 100 nM) of 1.05 ± 0.18, a surviving fraction ([9]; 500 nM) of 1.07 ± 0.094 and a surviving fraction ([9]; 1000 nM) of 1.06 ± 0.16. For the same test system, the “area under dose-response curve” value (CELECOXIB [10]) was 3.18, the “area under dose-response curve” value (CAMPTOTHECIN [11]) was 1.82 and the “area under dose-response curve” value [12] was 2.83. The “area under dose-response curve” value (CARBOPLATIN [13]) was 3.65, the “area under dose-response curve” value (OSI-906 [14]) was 3.13 and the “area under dose-response curve” value (YM155 [15]) was 1.76. The “area under dose-response curve” value (PACLITAXEL [16]) was 1.85, the “area under dose-response curve” value (GEFITINIB [17]) was 3.45 and the “area under dose-response curve” value [18] was 3.41.
